In patent US7183252B2, “Indole peptidomimetics as thrombin receptor antagonists” (Ortho-McNeil Pharmaceutical, Inc., priority 1999, dated 2007):
pIC50: −log10 of the molar value. Like-named read-outs stand apart in the source and are kept apart here.

Experiments:
gel-filtered platelets = assay: In vitro inhibition of thrombin-induced gel-filtered platelet aggregation; assay type: cell-based; details: human gel-filtered platelets, agonist thrombin 50 μL of 1 unit/mL, read-out: Thrmb IC50 (Thrombin-induced aggregation of gel-filtered platelets)
How it was run: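 Gel-filtered (Sepharose 2B) human platelets from citrated PRP, 2×10^7 per sample, in Tyrode's buffer pH 7.4 with BSA and added calcium, preincubated with test compound. Aggregation induced by thrombin (50 μL of 1 unit/mL) and followed as light transmission over 3 min. Inhibition is taken relative to control-treated platelets.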

[1] = biological target: T1, thrombin receptor (PAR-1) (Homo sapiens, UniProt P25116); assay: In vitro thrombin receptor binding assay (CHRF membranes); details: tritiated 721-40 radioligand, read-out: Bndg IC50 (Thrombin receptor binding)
T1 construct: CHRF membranes (Jones, Biochim. Biophys. Acta 1992, 1136, 272) are thawed from −70° C; endogenous in cells; host or cells: CHRF cell membranes
T1 sequence (P25116 22-425): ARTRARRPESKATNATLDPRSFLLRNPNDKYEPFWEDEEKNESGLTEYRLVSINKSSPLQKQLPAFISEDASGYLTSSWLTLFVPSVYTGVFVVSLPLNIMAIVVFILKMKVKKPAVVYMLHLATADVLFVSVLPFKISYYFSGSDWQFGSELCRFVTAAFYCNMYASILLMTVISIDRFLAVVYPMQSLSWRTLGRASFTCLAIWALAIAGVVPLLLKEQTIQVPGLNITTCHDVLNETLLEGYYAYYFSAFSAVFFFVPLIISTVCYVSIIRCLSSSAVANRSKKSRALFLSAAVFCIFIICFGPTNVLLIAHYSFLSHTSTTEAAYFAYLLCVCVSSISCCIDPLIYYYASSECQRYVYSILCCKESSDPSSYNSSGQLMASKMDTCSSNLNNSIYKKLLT
How it was run: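 CHRF cell membranes incubated 30 min with tritiated peptide agonist 721–40 and compound at 3.7 μg/mL final (0.6% DMSO) in HEPES/MgCl2/BSA buffer. Nonspecific binding defined with unlabeled 721–40; bound radioactivity counted after filtration onto PEI-treated filters.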

Row | SMILES | pIC50 (gel-filtered platelets; Platelet) | pIC50 [1] | pIC50 (gel-filtered platelets)
1 | COc1ccc(C[C@H](NC(=O)Nc2ccc3c(CN4CCCCC4)cn(Cc4ccc(F)cc4)c3c2)C(=O)N[C@@H](CCCNC(=N)N)C(=O)NCC2CCCCC2)cc1 [Compound 8] | 5.10 | 5.64 | –
2 | NCCNC(=O)[C@H](CSC(c1ccccc1)(c1ccccc1)c1ccccc1)NC(=O)[C@H](Cc1ccc(F)c(F)c1)NC(=O)Nc1ccc2c(CN3CCCC3)cn(Cc3c(Cl)cccc3Cl)c2c1 [Compound 151] | – | 6.35 | 5.54
3 | CC(=N)NCCC[C@H](NC(=O)[C@H](Cc1ccc(F)c(F)c1)NC(=O)Nc1ccc2c(CN3CCCC3)cn(Cc3c(Cl)cccc3Cl)c2c1)C(=O)NCc1ccccc1 [Compound 95] | 6.39 | 6.43 | –
4 | NCCNC(=O)[C@H](Cc1cccc(F)c1)NC(=O)[C@H](Cc1ccc(F)c(F)c1)NC(=O)Nc1ccc2c(CN3CCCC3)cn(Cc3c(Cl)cccc3Cl)c2c1 [Compound 138] | 6.48 | 5.70 | –
5 | NCC[C@H](NC(=O)[C@H](Cc1ccc2ccccc2c1)NC(=O)Nc1ccc2c(CN3CCCC3)cn(Cc3c(Cl)cccc3Cl)c2c1)C(=O)NCc1ccccc1 [Compound 129] | 6.07 | 5.60 | –
6 | C=CCN(C)Cc1cn(Cc2c(Cl)cccc2Cl)c2cc(NC(=O)N[C@@H](Cc3cccc(F)c3)C(=O)N[C@@H](CCCN)C(=O)NC3Cc4ccccc4C3)ccc12 [Compound 97] | 4.73 | 5.77 | –
7 | N=C(N)NCCC[C@H](NC(=O)[C@@H](NC(=O)Nc1ccc2c(CN3CCCC3)cn(Cc3c(Cl)cccc3Cl)c2c1)C(c1ccccc1)c1ccccc1)C(=O)NCc1ccccc1 [Compound 56] | 5.42 | 4.94 | –
8 | Cc1ccccc1Cn1cc(CN2CCCC2)c2ccc(NC(=O)N[C@H](C(=O)N[C@@H](CCCNC(=N)N)C(=O)NCc3ccccc3)c3ccccc3)cc21 [Compound 29] | < 5.00 | 5.08 | –
9 | Cc1ccccc1Cn1cc(CN2CCCC2)c2ccc(NC(=O)N[C@@H](Cc3cccc(C(F)(F)F)c3)C(=O)N[C@@H](CCCNC(=N)N)C(=O)NCc3ccccc3)cc21 [Compound 54] | 6.30 | 4.80 | –
10 | Cc1ccccc1Cn1cc(CN2CCCC2)c2ccc(NC(=O)N[C@@H](Cc3ccc(-c4ccccc4)cc3)C(=O)N[C@@H](CCCNC(=N)N)C(=O)NCc3ccccc3)cc21 [Compound 39] | 5.46 | 4.67 | –
11 | NCC[C@H](NC(=O)[C@H](CCc1ccccc1)NC(=O)Nc1ccc2c(CN3CCCC3)cn(Cc3c(Cl)cccc3Cl)c2c1)C(=O)NCc1ccccc1 [Compound 128] | 4.73 | 5.47 | –
12 | COc1ccc(C[C@H](NC(=O)Nc2ccc3c(CN4CCCC4)cn(Cc4ccc(C#N)cc4)c3c2)C(=O)N[C@@H](CCCNC(=N)N)C(=O)NCc2ccccc2)cc1 [Compound 13] | 4.79 | 5.35 | –
13 | N=C(N)NCCC[C@H](NC(=O)[C@H](Cc1ccc(Br)cc1)NC(=O)Nc1ccc2c(CN3CCCCC3)cn(Cc3c(Cl)cccc3Cl)c2c1)C(=O)NCc1ccccc1 [Compound 63] | 6.15 | 6.89 | –
14 | CCN(Cc1ccncc1)C(=O)[C@H](CCCN)NC(=O)[C@H](Cc1ccc(F)c(F)c1)NC(=O)Nc1ccc2c(CN3CCCC3)cn(Cc3c(Cl)cccc3Cl)c2c1 [Compound 110] | 5.43 | 5.54 | –
15 | COc1ccc(C[C@H](NC(=O)Nc2ccc3c(CNCCCN4CCCC4)cn(Cc4ccc(F)cc4)c3c2)C(=O)N[C@@H](CCCNC(=N)N)C(=O)NCc2ccccc2)cc1 [Compound 33] | 4.26 | 5.27 | –
16 | CN1CCN(C(=O)[C@H](CCCN)NC(=O)[C@H](Cc2ccc(F)c(F)c2)NC(=O)Nc2ccc3c(CN4CCCC4)cn(Cc4c(Cl)cccc4Cl)c3c2)CC1 [Compound 114] | 5.62 | 6.59 | –
17 | N=C(N)NCCC[C@H](NC(=O)[C@H](Cc1ccc([N+](=O)[O-])cc1)NC(=O)Nc1ccc2c(CN3CCCC3)cn(Cc3ccc(F)cc3)c2c1)C(=O)NCc1ccccc1 [Compound 49] | 5.21 | 6.00 | –
18 | Cn1cnc(CCNC(=O)[C@H](CCCN)NC(=O)[C@H](Cc2ccc(F)c(F)c2)NC(=O)Nc2ccc3c(CN4CCCC4)cn(Cc4c(Cl)cccc4Cl)c3c2)c1 [Compound 124] | – | 5.92 | 6.36
19 | CCN(CC)Cc1cn(CCCc2ccccc2)c2cc(NC(=O)N[C@@H](Cc3ccc(F)c(F)c3)C(=O)N[C@@H](CCCNC(=N)N)C(=O)NCc3ccccc3)ccc12 [Compound 75] | 5.66 | 6.64 | –

Row | SMILES | pIC50 (gel-filtered platelets; Platelet) | pIC50 [1] | pIC50 (gel-filtered platelets)
20 | COc1ccc(C[C@H](NC(=O)Nc2ccc3c(CN4CCC4)cn(Cc4ccc(F)cc4)c3c2)C(=O)N[C@@H](CCCNC(=N)N)C(=O)NCc2ccccc2)cc1 [Compound 44] | 5.01 | 5.48 | –
21 | N#Cc1ccc(C[C@H](NC(=O)Nc2ccc3c(CN4CCCC4)cn(Cc4c(Cl)cccc4Cl)c3c2)C(=O)N[C@@H](CCCNC(=N)N)C(=O)NCc2ccccc2)cc1 [Compound 52] | 6.32 | 5.28 | –
22 | CN(Cc1cn(Cc2c(Cl)cccc2Cl)c2cc(NC(=O)N[C@@H](Cc3ccc(Cl)cc3)C(=O)N[C@@H](CCCN)C(=O)NC3Cc4ccccc4C3)ccc12)CC1OCCO1 [Compound 122] | 5.46 | 4.98 | –
23 | CCOc1ccc(C[C@H](NC(=O)Nc2ccc3c(CN4CCCC4)cn(Cc4cccc(C)c4)c3c2)C(=O)N[C@@H](CCCNC(=N)N)C(=O)NCc2ccccc2)cc1 [Compound 42] | 4.61 | 5.70 | –
24 | N=C(N)NCCC[C@H](NC(=O)[C@H](Cc1ccc(F)c(F)c1)NC(=O)Nc1ccc2c(CN3CCCC3)cn(Cc3c(Cl)cccc3Cl)c2c1)C(=O)NCCCCCN [Compound 81] | 6.39 | 7.15 | –
25 | NCC[C@H](NC(=O)[C@H](Cc1cccs1)NC(=O)Nc1ccc2c(CN3CCCC3)cn(Cc3c(Cl)cccc3Cl)c2c1)C(=O)NCc1ccccc1 [Compound 131] | 6.03 | 5.72 | –
26 | NCCNC(=O)CNC(=O)[C@H](Cc1cccc(F)c1)NC(=O)Nc1ccc2c(CN3CCCC3)cn(Cc3c(Cl)cccc3Cl)c2c1 [Compound 147] | 5.36 | 6.38 | –
27 | NCCNC(=O)[C@H](CO)NC(=O)[C@H](Cc1ccc(F)c(F)c1)NC(=O)Nc1ccc2c(CN3CCCC3)cn(Cc3c(Cl)cccc3Cl)c2c1 [Compound 150] | 5.85 | 7.00 | –
28 | CC(=O)NCCC[C@H](NC(=O)[C@H](Cc1ccc(F)c(F)c1)NC(=O)Nc1ccc2c(CN3CCCC3)cn(Cc3c(Cl)cccc3Cl)c2c1)C(=O)NCc1ccccc1 [Compound 94] | 5.00 | 6.09 | –
29 | COc1ccc(C[C@H](NC(=O)Nc2ccc3c(CN4CCCC4)cn(Cc4ccc(OC)cc4)c3c2)C(=O)N[C@@H](CCCNC(=N)N)C(=O)NCc2ccccc2)cc1 [Compound 20] | 4.58 | 4.77 | –
30 | N=C(N)NCCC[C@H](NC(=O)[C@@H]1CCCN1C(=O)Nc1ccc2c(CN3CCCC3)cn(Cc3c(Cl)cccc3Cl)c2c1)C(=O)NCc1ccccc1 [Compound 107] | 5.74 | 5.10 | –
31 | NCC[C@H](NC(=O)[C@H](Cc1ccc(F)c(F)c1)NC(=O)Nc1ccc2c(CN3CCCC3)cn(Cc3c(Cl)cccc3Cl)c2c1)C(=O)NCc1ccccc1 [Compound 102, Benzenepropanamide, N-[(1S)-3-amino-1-[[(phenylmethyl)amino]carbonyl]propyl]-α-[[[[1-[(2,6-dichlorophenyl)methyl]-3-(1-pyrrolidinylmethyl)-1H-indol-6-yl]amino]carbonyl]amino]-3,4-difluoro-, (αS)-] | 6.80 | 6.30 | –
32 | COCC[C@H](NC(=O)[C@H](Cc1ccc(F)c(F)c1)NC(=O)Nc1ccc2c(CN3CCCC3)cn(Cc3c(Cl)cccc3Cl)c2c1)C(=O)NCCN [Compound 156] | 6.22 | 7.40 | –
33 | CSCC[C@H](NC(=O)[C@H](Cc1ccc(F)c(F)c1)NC(=O)Nc1ccc2c(CN3CCCC3)cn(Cc3c(Cl)cccc3Cl)c2c1)C(=O)NCCN [Compound 143] | 6.54 | 7.70 | –
34 | CN(C)CCNC(=O)[C@H](CCCN)NC(=O)[C@H](Cc1ccc(F)c(F)c1)NC(=O)Nc1ccc2c(CN3CCCC3)cn(Cc3c(Cl)cccc3Cl)c2c1 [Compound 126] | 6.34 | 5.82 | –
35 | Cc1ccccc1Cn1cc(CN2CCCC2)c2ccc(NC(=O)N[C@@H](Cc3ccc(F)c(F)c3)C(=O)N[C@@H](CCCNC(=N)N)C(=O)NCCc3ccccc3Cl)cc21 [Compound 64] | 5.66 | 6.64 | –
36 | COc1ccc(C[C@H](NC(=O)Nc2ccc3c(CN4CCCC4)cn(Cc4ccc(F)cc4)c3c2)C(=O)N[C@@H](CCCNC(=N)N)C(=O)NCc2ccccc2)cc1 [Compound 1] | 6.08 | 6.22 | –
37 | N=C(N)NCCC[C@H](NC(=O)[C@H](Cc1ccc(F)c(F)c1)NC(=O)Nc1ccc2c(CN3CCCC3)cn(Cc3c(Cl)cccc3Cl)c2c1)C(=O)NCc1ccc(F)cc1 [Compound 59] | 6.06 | 6.85 | –
38 | NCCNC(=O)[C@H](Cc1cccs1)NC(=O)[C@H](Cc1ccc(Cl)cc1)NC(=O)c1ccc2c(CN3CCCC3)cn(Cc3c(Cl)cccc3Cl)c2c1 [Compound 177] | 5.36 | 6.21 | –
